The text below walks through data of BindingDB's records for doi:10.1016/j.bmc.2007.03.014 (Universit&#233, 2007).

This series is described as follows: Reversal of P-gp-mediated multidrug resistance to vinblastine in human CEM/VLB500 cells after 3 days by resazurin assay. Background: Resazurin is reduced to fluorescent resorufin, in cell work by metabolically active cells.
On to `COc1cc2c(cc1OC)CN(CCc1ccc(NC(=O)c3cc(OC)c(OC)cc3NC(=O)c3cnc4ccccc4c3)cc1)CC2`, for which the EC50 (commonly the concentration giving half of the maximal effect) turned out to be 68 nM.

With `COc1ccc(CCN2CCC[C@H]2CNC(=O)c2ccccc2NC(=O)c2cnc3ccccc3c2)cc1OC` [(S) N-(2-((1-(3,4-dimethoxyphenethyl)pyrrolidin-2-yl)methylcarbamoyl)phenyl)quinoline-3-carboxamide], the EC50 was 329 nM. The same measure for `O=C(Nc1ccccc1C(=O)N[C@@H]1CCCC[C@@H]1N1CCN(c2ccccc2)CC1)c1cnc2ccccc2c1` (racemic) [rac-cis-N-(2-(2-(4-phenylpiperazin-1-yl)cyclohexylcarbamoyl)phenyl)quinoline-3-carboxamide]: 648 nM; for `COc1ccc(CN2CCN(c3ccc(NC(=O)c4cc(OC)c(OC)cc4NC(=O)c4cnc5ccccc5c4)cc3)CC2)cc1OC` [N-(2-(4-(4-(3,4-dimethoxybenzyl)piperazin-1-yl)phenylcarbamoyl)-4,5-dimethoxyphenyl)quinoline-3-carboxamide]: 59 nM; for `COc1ccc(CCN2CCC[C@@H]2CNC(=O)c2ccccc2NC(=O)c2cnc3ccccc3c2)cc1OC` [(R) N-(2-((1-(3,4-dimethoxyphenethyl)pyrrolidin-2-yl)methylcarbamoyl)phenyl)quinoline-3-carboxamide]: 482 nM. The result for `COc1ccc(CN2CCN(c3ccc(NC(=O)c4ccccc4NC(=O)c4cnc5ccccc5c4)cc3)CC2)cc1OC` [N-(2-(4-(4-(3,4-dimethoxybenzyl)piperazin-1-yl)phenylcarbamoyl)phenyl)quinoline-3-carboxamide] reads 124 nM.
